Reference: ChEMBL document CHEMBL5620381, “Design, synthesis and antitubercular activity of novel N-(amino)piperazinyl benzothiazinones with improved safety” (Eur J Med Chem, 2023)
Values after ≈ are worked out from the molar mass of the structure shown.

Key:
[1] = Selectivity index, ratio of CC50 for human THP-1 cells to MIC for Mycobacterium tuberculosis H37Rv […]; format: toxicity; conditions: read-out: Selectivity Index
[2] = test system: Mycobacterium tuberculosis; assay: Antitubercular activity against Mycobacterium tuberculosis H37Rv […] incubated for 8 days by MABA; format: functional; conditions: 192 h, time 8 day
[3] = Cytotoxicity against human THP-1 cells incubated for 48 hrs by MTS/PMS assay; format: toxicity, cell-based
[4] = Toxicity in ICR mouse assessed as increase in body weight at 500 mg/kg, po administered as single dose and measured for 7 days; format: organism-based; conditions: in vivo, 168 h, time 7 day
[5] = Mean residence time in ICR mouse at 25 mg/kg, po measured upto 24 hrs by HPLC analysis; format: ADME, organism-based; conditions: in vivo
[6] = Cmax in ICR mouse at 25 mg/kg, po measured upto 24 hrs by HPLC analysis; format: ADME, organism-based; conditions: in vivo
[7] = Tmax in ICR mouse at 25 mg/kg, po measured upto 24 hrs by HPLC analysis; format: ADME, organism-based; conditions: in vivo
[8] = Half-life in ICR mouse at 25 mg/kg, po measured upto 24 hrs by HPLC analysis; format: ADME, organism-based; conditions: in vivo
[9] = Toxicity in ICR mouse assessed as animal death at 500 mg/kg, po administered as single dose and measured for 7 days; format: organism-based; conditions: in vivo, 168 h, time 7 day
[10] = AUC(0 to infinity) in ICR mouse at 25 mg/kg, po measured upto 24 hrs by HPLC analysis; format: ADME, organism-based; conditions: in vivo
[11] = Toxicity in po dosed ICR mouse administered as single dose and measured for 7 days; format: organism-based; conditions: in vivo, time 7 day
hERG (KCNH2) = hERG (KCNH2) (Homo sapiens, UniProt Q12809); assay: Inhibition of human ERG expressed in HEK293 cells at 10 uM by whole cell patch clamp assay relative to control; format: toxicity, cell-based; conditions: HEK293 cells expressing human ERG
[12] = Toxicity in ICR mouse assessed as depression at 500 mg/kg, po administered as single dose and measured on next day; format: organism-based; conditions: in vivo, 24 h, time 1 day
[13] = Toxicity in ICR mouse assessed as depression at 500 mg/kg, po administered as single dose and measured after 3 to 7 days; format: organism-based; conditions: in vivo, time 3-7 day

hERG (KCNH2), sequence (Q12809 whole entry): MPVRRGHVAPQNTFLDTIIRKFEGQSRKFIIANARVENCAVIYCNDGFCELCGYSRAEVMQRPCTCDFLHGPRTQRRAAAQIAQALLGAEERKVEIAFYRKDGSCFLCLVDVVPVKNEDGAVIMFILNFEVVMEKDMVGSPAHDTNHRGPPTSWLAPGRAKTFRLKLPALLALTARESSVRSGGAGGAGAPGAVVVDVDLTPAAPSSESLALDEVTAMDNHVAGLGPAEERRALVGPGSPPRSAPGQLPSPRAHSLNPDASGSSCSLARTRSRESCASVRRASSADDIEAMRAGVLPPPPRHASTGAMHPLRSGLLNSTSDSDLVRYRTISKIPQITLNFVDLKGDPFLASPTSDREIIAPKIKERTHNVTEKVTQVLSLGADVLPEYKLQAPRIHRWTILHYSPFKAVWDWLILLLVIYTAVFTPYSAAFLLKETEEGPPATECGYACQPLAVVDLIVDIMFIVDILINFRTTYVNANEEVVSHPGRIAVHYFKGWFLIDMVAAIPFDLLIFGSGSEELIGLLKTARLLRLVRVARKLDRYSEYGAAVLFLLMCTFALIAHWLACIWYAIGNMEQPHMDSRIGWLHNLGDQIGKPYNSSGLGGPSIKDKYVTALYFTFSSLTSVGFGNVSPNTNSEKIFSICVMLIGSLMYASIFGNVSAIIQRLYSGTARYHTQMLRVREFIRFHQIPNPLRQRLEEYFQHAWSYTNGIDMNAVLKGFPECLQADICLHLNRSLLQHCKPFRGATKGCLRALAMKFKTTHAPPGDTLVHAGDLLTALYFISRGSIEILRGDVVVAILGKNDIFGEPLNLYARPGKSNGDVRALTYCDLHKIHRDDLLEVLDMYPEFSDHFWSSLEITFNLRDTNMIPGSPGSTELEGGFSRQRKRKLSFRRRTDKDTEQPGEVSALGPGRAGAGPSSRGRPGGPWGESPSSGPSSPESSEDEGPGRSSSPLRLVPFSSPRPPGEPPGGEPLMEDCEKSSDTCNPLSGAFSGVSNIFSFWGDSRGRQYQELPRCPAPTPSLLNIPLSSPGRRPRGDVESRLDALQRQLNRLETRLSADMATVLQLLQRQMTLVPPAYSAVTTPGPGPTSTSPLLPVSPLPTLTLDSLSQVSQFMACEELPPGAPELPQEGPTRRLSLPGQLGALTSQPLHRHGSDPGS

In the case of `O=c1nc(N2CCN(NC3CCCCC3)CC2)sc2c([N+](=O)[O-])cc(C(F)(F)F)cc12`, the selectivity ratio [1] is reported as > 4200, the MIC [2] is reported as < 0.001 µg/mL and the CC50 at 48 h [3] is reported as > 64 µg/mL.

For `CON=C1CCC(N(C)N2CCN(c3nc(=O)c4cc(C(F)(F)F)cc([N+](=O)[O-])c4s3)CC2)CC1` (centres undefined), the selectivity ratio [1] was > 4200, the MIC [2] was < 0.001 µg/mL and the CC50 at 48 h [3] was > 64 µg/mL.

With `O=c1nc(N2CCN(NC3CCCCCCC3)CC2)sc2c([N+](=O)[O-])cc(C(F)(F)F)cc12` the selectivity ratio [1] was > 4200, the MIC [2] was < 0.001 µg/mL and the CC50 at 48 h [3] was 46.9 µg/mL (≈ 96.7 µM).

In the case of `CN(C1CCC(C)(C)CC1)N1CCN(c2nc(=O)c3cc(C(F)(F)F)cc([N+](=O)[O-])c3s2)CC1`, the Activity [4] is reported as “Toxic”, the MRT [5] is reported as 3.91 h and the Cmax [6] is reported as 501 ng/mL. For the same compound, the selectivity ratio [1] was > 4200, the Tmax [7] was 0.5 h and the MIC [2] was < 0.001 µg/mL. For the same compound, the half-life [8] was 5.07 h, the Activity [9] was “Non-Toxic” and the AUC(0-inf) [10] was 1190 ng·h/mL. The LD50 at 168 h [11] was > 500 mg/kg, the CC50 at 48 h [3] was > 64 µg/mL and the inhibition at 10 µM (hERG (KCNH2)) was 6.1%.

With `CN(C1C2CC3CC(C2)CC1C3)N1CCN(c2nc(=O)c3cc(C(F)(F)F)cc([N+](=O)[O-])c3s2)CC1` (centres undefined) the selectivity ratio [1] was > 4200, the MIC [2] was 0.0025 µg/mL (≈ 0.00477 µM) and the CC50 at 48 h [3] was > 64 µg/mL.

In the case of `CC1CC(N(C)N2CCN(c3nc(=O)c4cc(C(F)(F)F)cc([N+](=O)[O-])c4s3)CC2)CC(C)(C)C1` (centres undefined), the selectivity ratio [1] is reported as > 4200, the MIC [2] is reported as < 0.001 µg/mL and the CC50 at 48 h [3] is reported as > 64 µg/mL.

With `CON=C1CCC(N(C)N2CCN(c3nc(=O)c4cc(C(F)(F)F)cc([N+](=O)[O-])c4s3)CC2(C)C)CC1` (centres undefined) the selectivity ratio [1] was > 4200, the MIC [2] was 0.0631 µg/mL (≈ 0.116 µM) and the CC50 at 48 h [3] was 4.91 µg/mL (≈ 9.05 µM).

In the case of `CN(C1CCC2(CCCCC2)CC1)N1CCN(c2nc(=O)c3cc(C(F)(F)F)cc([N+](=O)[O-])c3s2)CC1`, the selectivity ratio [1] is reported as > 4200, the MIC [2] is reported as < 0.001 µg/mL and the CC50 at 48 h [3] is reported as 51.9 µg/mL (≈ 96.2 µM).

For `CC1CCC(C)C(N(C)N2CCN(c3nc(=O)c4cc(C(F)(F)F)cc([N+](=O)[O-])c4s3)CC2)C1` (centres undefined), the selectivity ratio [1] was > 4200, the MIC [2] was < 0.001 µg/mL and the CC50 at 48 h [3] was > 64 µg/mL.

In the case of `CN(C1CCCCC1)N1CCN(c2nc(=O)c3cc(C(F)(F)F)cc([N+](=O)[O-])c3s2)CC1`, the selectivity ratio [1] is reported as > 4200, the MIC [2] is reported as < 0.001 µg/mL and the CC50 at 48 h [3] is reported as > 64 µg/mL. The inhibition at 10 µM (hERG (KCNH2)) was 27.3%.

With `CN(C1CCC(C)(C)CC1)N1CCN(c2nc(=O)c3cc(C(F)(F)F)cc([N+](=O)[O-])c3s2)CC1(C)C` the Activity [4] was “Toxic”, the Activity [12] was “Toxic” and the selectivity ratio [1] was > 4200. The MIC [2] was < 0.001 µg/mL, the Activity [9] was “Non-Toxic” and the LD50 at 168 h [11] was > 500 mg/kg. The Activity [13] was “Non-Toxic”, the CC50 at 48 h [3] was > 64 µg/mL and the inhibition at 10 µM (hERG (KCNH2)) was 18.1%.

In the case of `CN(C1CCCCC1)N1CCN(c2nc(=O)c3cc(C(F)(F)F)cc([N+](=O)[O-])c3s2)CC1(C)C`, the selectivity ratio [1] is reported as > 4200, the MIC [2] is reported as 0.0015 µg/mL (≈ 0.003 µM) and the CC50 at 48 h [3] is reported as > 64 µg/mL. The inhibition at 10 µM (hERG (KCNH2)) was 45.7%.

In the case of `CC1CCC(N(C)N2CCN(c3nc(=O)c4cc(C(F)(F)F)cc([N+](=O)[O-])c4s3)CC2)CC1` (centres undefined), the selectivity ratio [1] is reported as > 4200, the MIC [2] is reported as < 0.001 µg/mL and the CC50 at 48 h [3] is reported as > 64 µg/mL. It also gave an inhibition at 10 µM (hERG (KCNH2)) of 32.7%.

For `CN(C1CCCCCCC1)N1CCN(c2nc(=O)c3cc(C(F)(F)F)cc([N+](=O)[O-])c3s2)CC1`, the selectivity ratio [1] was > 4200, the MIC [2] was < 0.001 µg/mL and the CC50 at 48 h [3] was > 64 µg/mL.

With `CC1(C)CCC(NN2CCN(c3nc(=O)c4cc(C(F)(F)F)cc([N+](=O)[O-])c4s3)CC2)CC1` the Activity [4] was “Toxic”, the MRT [5] was 1.63 h and the Cmax [6] was 755 ng/mL. For the same compound, the selectivity ratio [1] was > 4200, the Tmax [7] was 0.25 h and the MIC [2] was < 0.001 µg/mL. For the same compound, the half-life [8] was 1.23 h, the Activity [9] was “Non-Toxic” and the AUC(0-inf) [10] was 971 ng·h/mL. The LD50 at 168 h [11] was > 500 mg/kg, the CC50 at 48 h [3] was 58.1 µg/mL (≈ 120 µM) and the inhibition at 10 µM (hERG (KCNH2)) was 19.9%.

With `CN(C1CCC(=NOC(C)(C)C)CC1)N1CCN(c2nc(=O)c3cc(C(F)(F)F)cc([N+](=O)[O-])c3s2)CC1` (centres undefined) the selectivity ratio [1] was > 4200, the MIC [2] was 0.00721 µg/mL (≈ 0.013 µM) and the CC50 at 48 h [3] was > 64 µg/mL.

In the case of `O=c1nc(N2CCN(NC3CCC(F)(F)CC3)CC2)sc2c([N+](=O)[O-])cc(C(F)(F)F)cc12`, the selectivity ratio [1] is reported as > 4200, the MIC [2] is reported as 0.00311 µg/mL (≈ 0.0063 µM) and the CC50 at 48 h [3] is reported as > 64 µg/mL. The inhibition at 10 µM (hERG (KCNH2)) was 46.8%.

With `CC1CCCCC1NN1CCN(c2nc(=O)c3cc(C(F)(F)F)cc([N+](=O)[O-])c3s2)CC1` (centres undefined) the selectivity ratio [1] was > 4200, the MIC [2] was 0.0014 µg/mL (≈ 0.00297 µM) and the CC50 at 48 h [3] was 48.7 µg/mL (≈ 103 µM).

In the case of `CON=C1CCC(N(C)N2CCN(c3nc(=O)c4cc(C(F)(F)F)cc([N+](=O)[O-])c4s3)CC2C)CC1` (centres undefined), the selectivity ratio [1] is reported as > 4200, the MIC [2] is reported as 0.0143 µg/mL (≈ 0.0271 µM) and the CC50 at 48 h [3] is reported as 12.3 µg/mL (≈ 23.3 µM). For the same compound, the inhibition at 10 µM (hERG (KCNH2)) was 23.1%.

With `CN(C1CCC(F)(F)CC1)N1CCN(c2nc(=O)c3cc(C(F)(F)F)cc([N+](=O)[O-])c3s2)CC1` the selectivity ratio [1] was > 4200, the MIC [2] was < 0.001 µg/mL and the CC50 at 48 h [3] was > 64 µg/mL.

With `CCON=C1CCC(N(C)N2CCN(c3nc(=O)c4cc(C(F)(F)F)cc([N+](=O)[O-])c4s3)CC2)CC1` (centres undefined) the selectivity ratio [1] was > 4200, the MIC [2] was 0.0118 µg/mL (≈ 0.0223 µM) and the CC50 at 48 h [3] was 50.1 µg/mL (≈ 94.8 µM).

For `CC1CN(c2nc(=O)c3cc(C(F)(F)F)cc([N+](=O)[O-])c3s2)CCN1N(C)C1CCC(C)(C)CC1` (centres undefined), the Activity [4] was “Toxic”, the Activity [12] was “Toxic” and the selectivity ratio [1] was > 4200. The MIC [2] was < 0.001 µg/mL, the Activity [9] was “Non-Toxic” and the LD50 at 168 h [11] was > 500 mg/kg. For the same compound, the Activity [13] was “Non-Toxic”, the CC50 at 48 h [3] was > 64 µg/mL and the inhibition at 10 µM (hERG (KCNH2)) was 35.5%.

For `CC1CCC(NN2CCN(c3nc(=O)c4cc(C(F)(F)F)cc([N+](=O)[O-])c4s3)CC2)CC1` (centres undefined), the selectivity ratio [1] was > 4200, the MIC [2] was < 0.001 µg/mL and the CC50 at 48 h [3] was > 64 µg/mL.

In the case of `CC1CN(c2nc(=O)c3cc(C(F)(F)F)cc([N+](=O)[O-])c3s2)CCN1N(C)C1CCCCC1` (centres undefined), the selectivity ratio [1] is reported as > 4200, the MIC [2] is reported as < 0.001 µg/mL and the CC50 at 48 h [3] is reported as > 64 µg/mL.

In the case of `CC1CCCCC1N(C)N1CCN(c2nc(=O)c3cc(C(F)(F)F)cc([N+](=O)[O-])c3s2)CC1` (centres undefined), the selectivity ratio [1] is reported as > 4200, the MIC [2] is reported as 0.00135 µg/mL (≈ 0.00278 µM) and the CC50 at 48 h [3] is reported as > 64 µg/mL.

In the case of `CN(CC1CCC(F)(F)CC1)N1CCN(c2nc(=O)c3cc(C(F)(F)F)cc([N+](=O)[O-])c3s2)CC1`, the selectivity ratio [1] is reported as > 4200, the MIC [2] is reported as < 0.001 µg/mL and the CC50 at 48 h [3] is reported as > 64 µg/mL.

With `NNC(=O)c1ccncc1` [ISONIAZID] the MIC [2] was 0.0374 µg/mL (≈ 0.273 µM) and the CC50 at 48 h [3] was > 64 µg/mL.

In the case of `O=c1nc(N2CCN(CC3CCCCC3)CC2)sc2c([N+](=O)[O-])cc(C(F)(F)F)cc12` [MACOZINONE], the MIC [2] is reported as < 0.001 µg/mL and the CC50 at 48 h [3] is reported as > 64 µg/mL.

In the case of `CO[C@H]1/C=C/O[C@@]2(C)Oc3c(C)c(O)c4c(O)c(c(/C=N/N5CCN(C)CC5)c(O)c4c3C2=O)NC(=O)/C(C)=C\C=C\[C@H](C)[C@H](O)[C@@H](C)[C@@H](O)[C@@H](C)[C@H](OC(C)=O)[C@@H]1C` [RIFAMPIN], the MIC [2] is reported as 0.019 µg/mL (≈ 0.0231 µM) and the CC50 at 48 h [3] is reported as > 64 µg/mL.
